Source: patent US7754220B2, “Methods of inhibiting secretion of follicle-stimulating hormone and testosterone” (Takeda Pharmaceutical Company Limited, priority 2003, dated 2010)

Assay: Level of human metastin in plasma by EIA after sustained administration
Format: in vivo
Details: rat, sc, male Copenhagen rats, continuous s.c. administration by osmotic pumps at 6.0 nmol/hr, 7 days after implantation
Protocol: Male Copenhagen rats of 8 weeks old after birth (Charles River Laboratories, US) were anesthetized by giving an intraperitoneal injection of sodium pentobarbital (Nembutal, Dainippon Pharmaceutical Co., Ltd.) in a dose of 50 mg/kg body weight. Then, two ALZET osmotic pumps (Model 2001, volume: 200 μL, rate: 1.0 μL/hr) filled with a 3 mM human metastin solution in distilled water (metastin group) or with distilled water (distilled water group) were implanted subcutaneously in rats at the back (5 rats in each group), whereby human metastin was continuously administered at a rate of 6.0 nmol/hr in the metastin group. For the intraperitoneal administration of sodium pentobarbital, a 1 mL tuberculin syringe and a 26-gauge needle (both by Terumo Co., Ltd.) were used. Following weighing the body weight 7 days after the implantation of the pumps, the animal was sacrificed by decapitation to collect blood. At the same time, the weight of testis was weighed. […] The levels of FSH (follicle-stimulating hormone), LH (luteinizing hormone) and testosterone contained in plasma were determined by radioimmunoassay (Rat Follicle Stimulating Hormone (rFSH) [^125I] Biotrack Assay System with Magnetic Separation, Rat Luteinizing Hormone (rLH) [^125I] Biotrack Assay System with Magnetic Separation, all by Amersham Biosciences, and DPC.Total Testosterone by Diagnostic Products Corporation).

CC[C@H](C)[C@H](NC(=O)[C@H](CCC(N)=O)NC(=O)[C@H](CCCNC(=N)N)NC(=O)[C@H](CO)NC(=O)[C@H](Cc1c[nH]cn1)NC(=O)[C@@H]1CCCN1C(=O)[C@H](C)NC(=O)[C@H](CO)NC(=O)[C@H](CC(C)C)NC(=O)CNC(=O)[C@@H]1CCCN1C(=O)[C@H](CCC(N)=O)NC(=O)[C@H](CCC(N)=O)NC(=O)[C@H](CCCNC(=N)N)NC(=O)[C@H](CO)NC(=O)CNC(=O)[C@H](CO)NC(=O)[C@H](CO)NC(=O)[C@H](CCC(=O)O)NC(=O)[C@@H]1CCCN1C(=O)[C@@H]1CCCN1C(=O)[C@@H]1CCCN1C(=O)[C@H](CO)NC(=O)[C@H](CC(C)C)NC(=O)[C@H](CO)NC(=O)[C@@H](NC(=O)CN)[C@@H](C)O)C(=O)N1CCC[C@H]1C(=O)N[C@@H](C)C(=O)N1CCC[C@H]1C(=O)N[C@@H](CCC(N)=O)C(=O)NCC(=O)N[C@@H](C)C(=O)N[C@H](C(=O)N[C@@H](CC(C)C)C(=O)N[C@H](C(=O)N[C@@H](CCC(N)=O)C(=O)N[C@@H](CCCNC(=N)N)C(=O)N[C@@H](CCC(=O)O)C(=O)N[C@@H](CCCCN)C(=O)N[C@@H](CC(=O)O)C(=O)N[C@@H](CC(C)C)C(=O)N1CCC[C@H]1C(=O)N[C@@H](CC(N)=O)C(=O)N[C@@H](Cc1ccc(O)cc1)C(=O)N[C@@H](CC(N)=O)C(=O)N[C@@H](Cc1c[nH]c2ccccc12)C(=O)N[C@@H](CC(N)=O)C(=O)N[C@@H](CO)C(=O)N[C@@H](Cc1ccccc1)C(=O)NCC(=O)N[C@@H](CC(C)C)C(=O)N[C@@H](CCCNC(=N)N)C(=O)N[C@@H](Cc1ccccc1)C(N)=O)C(C)C)C(C)C [Human metastin]
level at time molar at 168 h: ~3.2 nM
